Data reported in patent publication USRE49556E1, “Compounds and compositions as protein kinase inhibitors” (Array BioPharma Inc., priority 2009, dated 2023).

Experiments:
SW620 cells = assay: SW620 cell viability assay (Cell Titer Glo); format: cell-based; details: 9 serial dilutions between 10 and 0.002 μM, without MEK inhibitor
Procedure: The present invention also includes combinations of the BRaf inhibitors disclosed in this invention with other agents. In particular, the present invention provides for combinations with MEK1/2 inhibitors. FIG. 1 illustrates that the addition of a MEK small molecule inhibitor can reverse the induced ERK signaling, cell growth and transformation caused by a Raf small molecule inhibitor.
SW620 cells were seeded in 1640 RPMI+10% FBS at a density of 1500 cells per 96-well in black walled, clear bottom tissue culture treated plates. Test compounds were serially diluted in DMSO then added to the cells (final DMSO concentration of 0.1%) and incubated at 37° C. and 5% CO2 for 4 days. To measure cell viability, cell plates were brought to room temperature, culture media was removed, and 200 µl of Cell Titer-Glo reagent (Promega, kit components mixed as per the manufacturer's protocol then diluted 1:2 with growth media) was added to each well. Plates were shaken for 5 minutes, then incubated at room temperature for 5 minutes, and the luminescence was measured (Trilux, Perkin Elmer).

[1] = Liver microsomal clearance assay, human; format: in vitro ADME; details: extraction ratio, human liver microsomes, 1 μM compound
Procedure: (§1) Liver Microsomal Clearance Assay
(§2) The in vitro microsomal clearance assay is designed to assess potential risks associated with hepatic metabolic stability of compounds. The test compound (1 μM) was incubated with liver microsomes (0.5 mg/mL) from different species (mouse, rat, monkey, dog and human) and NADPH (1 mM) in 100 mM potassium phosphate buffer at 37° C. At specific reaction time points (0, 5, 10 and 30 minutes), reaction aliquots were removed and reactions were terminated by addition of ice cold acetonitrile containing mass spectrometry internal standard. The samples were centrifuged and the supernatants were analyzed by LC-MS/MS. In vitro metabolic half-life (t1/2, min) and intrinsic clearance (CLint, μL/min/mg) are based on the rate and extent of metabolism of the test compound as determined by the disappearance of the parent compound from the reaction mixture. These values may be scaled to predict hepatic metabolic clearance rate (CLh, mL/min/kg) and extraction ratio (ER, expressed as a ratio of the predicted hepatic metabolic clearance to hepatic blood flow in that species). In general, compounds with high predictedCLint or ER in vitro are considered to be at high risk for exposure-limiting metabolism in vivo.

[2] = Liver microsomal clearance assay, mouse; format: in vitro ADME; details: extraction ratio, mouse liver microsomes, 1 μM compound
Procedure: as §1, §2

A375 cells = assay: A375 Cellular Proliferation Assay (A375 CP); format: cell-based; details: A375-luc cells, 2 days
Procedure: A375-luc cells engineered to express luciferase are plated to 384-well white clear bottom plates as 1,500 cells/50 μl/well in DMEM containing 10% FBS. Compounds of the invention dissolved in 100% DMSO at appropriate concentrations are transferred to the cells by a robotic Pin Tool (100 nl). The cells are incubated for 2 days at […], then 25 μl of BrightGlo™ is added to each well and the plates are read by luminescence. The concentration of each compound for 50% inhibition (IC50) was calculated by non-linear regression using XL Fit data analysis software.

[3] = In vivo pharmacokinetics assay in mouse
Procedure: (§3) Full pharmacokinetics study: Male Balb/c mice (n=3, body weights 22-25 g) or male Wistar rats (n=3, body weights 250-300 g) were administered the test compound intravenously via the lateral tail vein or orally via gavage. […] Six blood samples of 50 μL each were collected serially for 24 h after dosing. The blood samples were centrifuged to separate the plasma. Plasma samples were analyzed and quantified by LC-MS/MS.
as §3, with “Rapid” for “Full”, “intravenously (IV)” for “intravenously”, “orally (PO)” for “orally”, “Blood” for “The blood”, “and plasma separated and pooled across” for “to separate”, “three animals at each time point per dose route.” for “plasma.”
For both full and rapid pharmacokinetics studies, the following parameters were calculated by non-compartmental regression analysis using Winnonlin 5.0 software (Pharsight, Mountain View, Calif., USA): plasma clearance (Cl), plasma maximum concentration (Cmax), plasma area-under-the-concentration-time-curve (AUC0-inf) and percent oral bioavailability (F %).

Row | Molecule | cellular proliferation (Cell Titer Glo, FIG. 1) (SW620 cells) | ER Human [1] | ER Mouse [2] | IC50 (A375 cells) [nM] | Cmax ([3]; PO 5 mg/kg, n = 1) [nM] | PO AUC ([3]; PO 5 mg/kg, n = 1) | F ([3]; PO/IV 5/2 mg/kg, n = 1) | Cl ([3]; plasma clearance, IV 2 mg/kg)
1 | COC(=O)N[C@@H](C)CNc1nccc(-c2cn(C(C)C)nc2-c2cc(Cl)cc(NS(C)(=O)=O)c2F)n1 [Compound 9, Methyl N-[(2S)-1-({4-[3-(5-chloro-2-fluoro-3-methanesulfonamidophenyl)-1-(propan-2-yl)-1H-pyrazol-4-yl]pyrimidin-2-yl}amino)propan-2-yl]carbamate] | induction in cellular proliferation | – | – | – | – | – | – | –
2 | methyl N-[(2S)-1-[(4-{3-[2-fluoro-3-(propane-1-sulfonamido)phenyl]-1-(propan-2-yl)-1H-pyrazol-4-yl}pyrimidin-2-yl)amino]propan-2-yl]carbamate [Compound 3] | – | 0.69 | 0.85 | 2 | 70 | 0.20 (n = 1) hrs*μM | 6 (n = 1) % | 51 (n = 1) mL/min/kg
